Data as given in patent US8822515B2, “Heterocyclic benzoxazole compositions as inhibitors of hepatitis C virus” (University of Maryland, Baltimore County, priority 2009, dated 2014).
Entries after “also recorded” stand apart in the source; their conditions may differ. Read-outs that look alike come from different tables or passages of the source.

How the values were obtained:
HCV NTPase/helicase [1] = target: T1, HCV NTPase/helicase (Hepatitis C virus genotype 1a, UniProt P27958); assay: NTPase/Helicase assay, HCV helicase, DNA substrate; format: biochemical; conditions: for IC50 / inhibition of NTPase/helicase of HCV (in words): DNA substrate
T1 sequence (P27958 1027-1657): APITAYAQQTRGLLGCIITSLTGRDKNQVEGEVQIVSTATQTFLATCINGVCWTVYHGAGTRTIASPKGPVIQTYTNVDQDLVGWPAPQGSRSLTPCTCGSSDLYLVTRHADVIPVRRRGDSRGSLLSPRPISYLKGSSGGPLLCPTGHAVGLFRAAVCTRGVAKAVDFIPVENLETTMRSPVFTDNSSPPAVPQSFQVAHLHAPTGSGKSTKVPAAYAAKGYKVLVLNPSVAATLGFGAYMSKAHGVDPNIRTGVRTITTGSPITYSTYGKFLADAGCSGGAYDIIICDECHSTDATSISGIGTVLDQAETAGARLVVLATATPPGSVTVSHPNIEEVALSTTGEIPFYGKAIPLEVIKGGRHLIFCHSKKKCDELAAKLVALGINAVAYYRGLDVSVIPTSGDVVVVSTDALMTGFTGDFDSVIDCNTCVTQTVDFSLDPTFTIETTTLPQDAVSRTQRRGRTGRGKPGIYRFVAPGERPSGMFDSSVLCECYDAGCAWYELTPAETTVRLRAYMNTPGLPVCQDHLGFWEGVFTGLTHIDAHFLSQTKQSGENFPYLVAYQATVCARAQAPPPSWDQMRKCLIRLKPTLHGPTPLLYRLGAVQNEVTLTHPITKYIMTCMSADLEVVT
Experimental: Inhibitory activity of HCV was measured using a DNA substrate.
NTPase/Helicase activity determined by a previously described method. Helicase activity was determined as a function of increasing concentrations of the compounds in the presence of ATP adjusted to 105 μM, 235 μM, for HCV, JEV, and DENV NTPase/Helicase, respectively and […] of DNA substrate (concentration of nucleotide base). The substrate and released strand were separated in TBE polyacrylamide gel and visualized by exposition of dried gel onto X-ray film for 20 h. The part of the gels corresponding to the released strand were excised, and the ^32P radioactivity was quantified.

HCV NTPase/helicase [2] = target: T1, HCV NTPase/helicase; assay: NTPase/Helicase assay, HCV helicase, RNA substrate; format: biochemical
Experimental: NTPase/Helicase activity determined by a previously described method. […] The substrate and released strand were separated in TBE polyacrylamide gel and visualized by exposition of dried gel onto X-ray film for 20 h. The part of the gels corresponding to the released strand were excised, and the ^32P radioactivity was quantified.

HCV ATPase = HCV ATPase (Hepatitis C virus genotype 1a, UniProt P27958); assay: ATPase analysis of HCV NTPase/helicase; format: biochemical
Sequence of HCV ATPase (P27958 1027-1657): as above

[3] = tested on: HCV replicon in Huh7 ET (luc-ubi-neo/ET) cell line; assay: HCV replicon assay (luciferase based), antiviral activity; format: cell-based, Hepatitis C Virus; design: SI50: unit not given here; conditions: for EC50: Hepatitis C virus, Huh7 ET; for SI50: selectivity index, luciferase based replicon assay; for activity against HCV in replicon assay (in words): whole cells
Text: (§1) To determine if the compounds are active in whole cells, they were screened using an HCV replicon assay. […] Compound 2b also has similar selectivity towards HCV as human interferon alpha-2b (rIFNa-2b), the positive control.
In the replicon assays a Huh7 ET (luc-ubi-neo/ET) cell line is used. This particular construct contain the 5′NTR (IRES) of HCV, producing a firefly luciferase (luc), ubiquitin (ubiq) and neomycin phosphotranferase (neo) fusion protein. This modification makes the cell line more robust and provides the additional stability needed for antiviral screening. […]

[4] = tested on: Huh7 ET (luc-ubi-neo/ET) cell line; assay: HCV replicon assay (luciferase based), cytotoxicity; format: cell-based; conditions: cytotoxicity in luciferase based replicon assay, high test conc 20 μM (rIFNa-2b 2)
Text: as §1
In the replicon assays a Huh7 ET (luc-ubi-neo/ET) cell line is used. This particular construct contain the 5′NTR (IRES) of HCV, producing a firefly luciferase (luc), ubiquitin (ubiq) and neomycin phosphotranferase (neo) fusion protein. This modification makes the cell line more robust and provides the additional stability needed for antiviral screening. The effects of the drug were examined in triplicate at a single high-test concentration of 20 μM on HCV RNA-derived LUC activity and cytotoxicity.

HCV = assay: RNA based confirmatory assay, antiviral activity; format: cell-based, Hepatitis C Virus; design: SI50: unit not given here; conditions: for EC50: Hepatitis C virus; for SI50: selectivity index, RNA based confirmatory assay
[5] = RNA based confirmatory assay, cytotoxicity; format: cell-based; conditions: cytotoxicity in RNA based confirmatory assay; high test conc 20 μM (rIFNa-2b 2)
integrase = assay: Integrase test; format: biochemical
[6] = read-out: HCV Helicase (IC50) DNA (converted)
[7] = read-out: HCV Helicase (IC50) RNA
[8] = HCV Helicase (IC50) DNA, in brackets, molar value in brackets
[9] = HCV Helicase (IC50) RNA, in brackets, molar value in brackets

| SMILES | activity in HCV NTPase/helicase assay (in words) (HCV NTPase/helicase [1]) | IC50 (HCV NTPase/helicase [1]; [6]) | IC50 (HCV NTPase/helicase [2]; [7]) | IC50 (HCV ATPase; read-out: ATPase (IC50)) | EC50 [3] | SI50 [3] | activity against HCV in replicon assay (in words) [3] | IC50 [4] | EC50 (HCV) | SI50 (HCV) | IC50 [5] | inhibition of NTPase/helicase of HCV (in words) (HCV NTPase/helicase [1]) | IC50 (HCV NTPase/helicase [1]; HCV Helicase (IC50) DNA) | IC50 (HCV NTPase/helicase [1]; [8]) | inhibition of HCV helicase with RNA substrate (in words) (HCV NTPase/helicase [2]) | IC50 (HCV NTPase/helicase [2]; HCV Helicase (IC50) RNA) | IC50 (HCV NTPase/helicase [2]; [9]) | IC50 (HCV ATPase) | activity against integrase (integrase) | melting point |
| --- | --- | --- | --- | --- | --- | --- | --- | --- | --- | --- | --- | --- | --- | --- | --- | --- | --- | --- | --- | --- |
| COC(=O)c1cccc2oc(-c3ccccc3O)nc12 [Compound 8] | inactive; also recorded: did not show any activity | > 1860 µM | > 1860 µM | > 1860 µM | 0.32 µM | 16.2 | still active against HCV | 5.2 µM | 0.58 µM | >8.93 | 5.18 µM | – | – | – | – | – | – | – | – | – |
| CNC(=O)c1cccc2oc(-c3ccccc3O)nc12 [Compound 10] | inactive; also recorded: did not show any activity | > 1860 µM | > 1860 µM | > 1860 µM | 1.41 µM | 4.5 | still active against HCV | 6.32 µM | – | – | – | – | – | – | – | – | – | – | – | – |
| O=C(O)c1cccc2oc(-c3ccccc3O)nc12 [Compound 9] | inactive; also recorded: did not show any activity | > 1960 µM | > 1960 µM | > 1960 µM | 0.21 µM | 16.7 | still active against HCV | 3.51 µM | – | – | – | – | – | – | – | – | – | – | – | – |
| COC(=O)c1cccc2oc(-c3ccc4c(OCc5ccccc5)cccc4c3O)nc12 [Compound 2a, 2-(5-Benzyloxy-1-hydroxy-naphthalene-2-yl)-benzoxazole-4-carboxylic Acid Methyl Ester] | – | – | – | – | 1.13 µM | >17.7 | – | > 20 µM | – | – | – | inhibit | 3.76 µM | 3.8 µM | inhibitory | 20.4 µM | 20 µM | > 1180 µM | inactive | 183.5 to 185 °C |
| COC(=O)c1cccc2oc(-c3ccc4ccccc4c3O)nc12 [Compound 6, 2-(1-Hydroxy-naphthalen-2-yl)benzoxazole-4-carboxylic Acid Methyl Ester] | – | – | – | – | 0.21 µM | 7.67 | – | 1.61 µM | 1.32 µM | >1.27 | 1.68 µM | inhibit | 539 µM | 539 µM | inhibitory | 592 µM | 591 µM | > 1570 µM | inactive | – |
| COC(=O)c1cccc2oc(-c3ccc4ccc(OCc5ccccc5)cc4c3O)nc12 [Compound 2b, 2-(7-benzyloxy-1-hydroxy-napthalen-2-yl)-benzoxazole-4 Carboxylic Acid Methyl Ester] | – | – | – | – | 0.47 µM | >42.6 | – | > 20 µM | – | – | – | inhibit | 2.59 µM | 2.6 µM | inhibitory | 19.7 µM | 20 µM | > 1180 µM | inactive | – |
| COC(=O)c1cccc2oc(-c3cccc4oc(-c5ccccc5O)nc34)nc12 [Compound 1, UK-1] | inactive; also recorded: did not show any activity | 378 µM | > 1290 µM | > 1290 µM | 0.21 µM | – | still active against HCV | 11.6 µM | 0.72 µM | – | > 20 µM | inhibit | – | – | – | – | – | – | – | – |
